Columns and labels:
Conditions in all cases: treatment: drug + dasatinib (fixed dose, not stated); 5 days
769-P [1] = test: GI50 of drug in presence of dasatinib; higher = less potent
Method: (§1)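 Primary HTS combination arm: 8 RCC cell lines treated with 8 doses (up to 10 uM) of each library drug plus a fixed dose of dasatinib (dose not stated) for 5 days; viability read by CellTiter-Glo and normalised to DMSO. GI50 was fitted with XLfit, AUC is the area under the dose-response curve, and minimum viability is the lowest fraction of DMSO viability across doses.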

786-O [2] = test: as above
Method: as §1

A498 [3] = test: as above
Method: as §1

ACHN [4] = test: as above
Method: as §1

CAKI-1 [5] = test: as above
Method: as §1

SN12C [6] = test: as above
Method: as §1

TK-10 [7] = test: as above
Method: as §1

UO-31 [8] = test: as above
Method: as §1

769-P [9] = test: minimum viability across doses, drug + dasatinib, relative to DMSO (fraction); higher = less growth inhibition
Method: as §1

786-O [10] = test: as above
Method: as §1

A498 [11] = test: as above
Method: as §1

ACHN [12] = test: as above
Method: as §1

CAKI-1 [13] = test: as above
Method: as §1

SN12C [14] = test: as above
Method: as §1

TK-10 [15] = test: as above
Method: as §1

UO-31 [16] = test: as above
Method: as §1

769-P [17] = test: AUC of dose-response viability curve, drug + dasatinib, normalised to DMSO (arbitrary (AUC of normalised viability)); higher = less growth inhibition
Method: as §1

786-O [18] = test: as above
Method: as §1

A498 [19] = test: as above
Method: as §1

ACHN [20] = test: as above
Method: as §1

CAKI-1 [21] = test: as above
Method: as §1

SN12C [22] = test: as above
Method: as §1

TK-10 [23] = test: as above
Method: as §1

UO-31 [24] = test: as above
Method: as §1

GI50 of drug (786-O [2]) [µM] | GI50 of drug (ACHN [4]) [µM] | Structure (SMILES) | GI50 of drug (769-P [1]) [µM] | GI50 of drug (A498 [3]) [µM] | GI50 of drug (CAKI-1 [5]) [µM] | GI50 of drug (SN12C [6]) [µM] | GI50 of drug (TK-10 [7]) [µM] | GI50 of drug (UO-31 [8]) [µM] | minimum viability across doses (769-P [9]) | minimum viability across doses (786-O [10]) | minimum viability across doses (A498 [11]) | minimum viability across doses (ACHN [12]) | minimum viability across doses (CAKI-1 [13]) | minimum viability across doses (SN12C [14]) | minimum viability across doses (TK-10 [15]) | minimum viability across doses (UO-31 [16]) | AUC of dose-response viability curve (769-P [17]) | AUC of dose-response viability curve (786-O [18]) | AUC of dose-response viability curve (A498 [19]) | AUC of dose-response viability curve (ACHN [20]) | AUC of dose-response viability curve (CAKI-1 [21]) | AUC of dose-response viability curve (SN12C [22]) | AUC of dose-response viability curve (TK-10 [23]) | AUC of dose-response viability curve (UO-31 [24])
8.58 | 0.0785 | O=C(c1ccc(/C=C/c2n[nH]c3ccccc23)cc1)N1CCNCC1 [KW 2449] + Cc1nc(Nc2ncc(C(=O)Nc3c(C)cccc3Cl)s2)cc(N2CCN(CCO)CC2)n1 [dasatinib] | 2.78 | > 10 | 2.54 | 1.24 | > 10 | 3.52 | 0.162 | 0.425 | 0.521 | 0.159 | 0.15 | 0.0456 | 0.611 | 0.0258 | 2.33 | 2.58 | 3.27 | 1.64 | 2.03 | 2.05 | 2.89 | 3.7
0.0149 | 0.0433 | O=C(Cc1ccc(-c2ccc(OCCN3CCOCC3)cc2)cn1)NCc1ccccc1 [KX2-391] + Cc1nc(Nc2ncc(C(=O)Nc3c(C)cccc3Cl)s2)cc(N2CCN(CCO)CC2)n1 [dasatinib] | 0.0359 | 0.0776 | 0.0295 | 0.0467 | 0.104 | 0.0926 | 0.0616 | 0.00445 | 0.166 | 0.1 | 0.111 | 0.114 | 0.243 | 0.00946 | 1.09 | 0.764 | 1.78 | 1.23 | 1.12 | 1.34 | 1.69 | 1.77
8.55 | 1.28 | COc1cc2nccc(Oc3ccc(NC(=O)Nc4ccc(F)cc4F)c(F)c3)c2cc1OC [Ki8751] + Cc1nc(Nc2ncc(C(=O)Nc3c(C)cccc3Cl)s2)cc(N2CCN(CCO)CC2)n1 [dasatinib] | 1.09 | > 10 | 1.41 | > 10 | > 10 | > 10 | 0.304 | 0.483 | 1.04 | 0.352 | 0.154 | 0.546 | 0.683 | 0.735 | 2.15 | 2.33 | 4.09 | 1.89 | 1.95 | 2.37 | 2.6 | 3.73
6.69 | 0.176 | CS(=O)(=O)CCNCc1ccc(-c2ccc3ncnc(Nc4ccc(OCc5cccc(F)c5)c(Cl)c4)c3c2)o1.Cc1ccc(S(=O)(=O)O)cc1.Cc1ccc(S(=O)(=O)O)cc1 [Lapatinib Ditosylate (Tykerb)] + Cc1nc(Nc2ncc(C(=O)Nc3c(C)cccc3Cl)s2)cc(N2CCN(CCO)CC2)n1 [dasatinib] | 0.401 | > 10 | 3.85 | > 10 | 3.34 | 5.85 | 0.18 | 0.426 | 0.798 | 0.352 | 0.211 | 0.606 | 0.3 | 0.35 | 1.77 | 2.41 | 3.08 | 1.7 | 2.03 | 2.34 | 2.34 | 3.08
< 0.003 | > 10 | Nc1cccc2c1CN(C1CCC(=O)NC1=O)C2=O (stereo not drawn) [Lenalidomide (Revlimid)] + Cc1nc(Nc2ncc(C(=O)Nc3c(C)cccc3Cl)s2)cc(N2CCN(CCO)CC2)n1 [dasatinib] | > 10 | > 10 | > 10 | > 10 | > 10 | > 10 | 0.497 | 0.488 | 0.989 | 0.503 | 0.656 | 0.706 | 0.666 | 1.19 | 2.51 | 2.61 | 3.71 | 2.05 | 2.41 | 2.55 | 2.56 | 4.59
> 10 | 3.71 | Cc1ccc(F)c(NC(=O)Nc2ccc(-c3cccc4[nH]nc(N)c34)cc2)c1 [Linifanib (ABT-869)] + Cc1nc(Nc2ncc(C(=O)Nc3c(C)cccc3Cl)s2)cc(N2CCN(CCO)CC2)n1 [dasatinib] | 4 | 9.11 | 7.59 | 1.87 | 3.45 | > 10 | 0.27 | 0.557 | 0.279 | 0.244 | 0.213 | 0.312 | 0.231 | 0.729 | 2.33 | 2.63 | 3.28 | 2.4 | 2.21 | 2.25 | 2.58 | 3.5
> 10 | 2.97 | C[C@]1(O)C[C@@H](c2nc(-c3ccc4ccc(-c5ccccc5)nc4c3)c3c(N)nccn32)C1 [Linsitinib (OSI-906)] + Cc1nc(Nc2ncc(C(=O)Nc3c(C)cccc3Cl)s2)cc(N2CCN(CCO)CC2)n1 [dasatinib] | > 10 | > 10 | 2.6 | > 10 | > 10 | > 10 | 0.527 | 0.689 | 0.824 | 0.361 | 0.259 | 0.592 | 0.55 | 0.647 | 2.3 | 2.64 | 3.31 | 1.89 | 2.2 | 2.28 | 2.43 | 3.19

From the supplement of paper PMC8149375
